# Reference: ChEMBL document CHEMBL1201862, “PubChem BioAssay data set” (2004)
# Active and inactive are the calls of the source.
# Key:
# HeLa = experiment: ATP-based viability loss in HeLa cells – cell-based, CellTiter-Glo luminescence, cherry-pick samples, cytotoxicity control for MITF activator project, dose response (AID 540259); format: functional; conditions: Homo sapiens
# Prothrombin = Prothrombin (Homo sapiens, UniProt P00734); experiment: Thrombin 1536 HTS Dose Response Confirmation. [Related pubchem assays: 1046 (Thrombin 1536 HTS; hits were confirmed in this assay)]; format: functional
# [1] = target: T1, Endoribonuclease toxin MazF (Escherichia coli K-12, UniProt P0AE70); experiment: activation of MazEF endoribonuclease cleavage – biochemical, fluorescence, single-stranded RNA substrate, uHTS hits, dose response (AID 588481); format: functional
# T1 sequence (P0AE70 whole entry): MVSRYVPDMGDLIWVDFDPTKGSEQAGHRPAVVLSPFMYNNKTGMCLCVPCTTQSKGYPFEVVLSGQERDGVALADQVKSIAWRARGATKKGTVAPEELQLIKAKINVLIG
# [2] = target: T1, Endoribonuclease toxin MazF; experiment: substrate-only fluorescence increase artefacts – biochemical, single-stranded RNase substrate, counter-screen for MazEF activator project, dose response (AID 588502); format: functional
# [3] = target: Heat shock protein HSP 90-alpha (Homo sapiens, UniProt P07900); format: functional, organism-based
# DNA topoisomerase = target: T2, DNA topoisomerase (Yersinia pestis, UniProt A0A2S9PM60); experiment: Yersinia topoisomerase I cleavage product accumulation – biochemical, cherry-pick, dose response (AID 588525)
# T2 sequence (A0A2S9PM60 whole entry): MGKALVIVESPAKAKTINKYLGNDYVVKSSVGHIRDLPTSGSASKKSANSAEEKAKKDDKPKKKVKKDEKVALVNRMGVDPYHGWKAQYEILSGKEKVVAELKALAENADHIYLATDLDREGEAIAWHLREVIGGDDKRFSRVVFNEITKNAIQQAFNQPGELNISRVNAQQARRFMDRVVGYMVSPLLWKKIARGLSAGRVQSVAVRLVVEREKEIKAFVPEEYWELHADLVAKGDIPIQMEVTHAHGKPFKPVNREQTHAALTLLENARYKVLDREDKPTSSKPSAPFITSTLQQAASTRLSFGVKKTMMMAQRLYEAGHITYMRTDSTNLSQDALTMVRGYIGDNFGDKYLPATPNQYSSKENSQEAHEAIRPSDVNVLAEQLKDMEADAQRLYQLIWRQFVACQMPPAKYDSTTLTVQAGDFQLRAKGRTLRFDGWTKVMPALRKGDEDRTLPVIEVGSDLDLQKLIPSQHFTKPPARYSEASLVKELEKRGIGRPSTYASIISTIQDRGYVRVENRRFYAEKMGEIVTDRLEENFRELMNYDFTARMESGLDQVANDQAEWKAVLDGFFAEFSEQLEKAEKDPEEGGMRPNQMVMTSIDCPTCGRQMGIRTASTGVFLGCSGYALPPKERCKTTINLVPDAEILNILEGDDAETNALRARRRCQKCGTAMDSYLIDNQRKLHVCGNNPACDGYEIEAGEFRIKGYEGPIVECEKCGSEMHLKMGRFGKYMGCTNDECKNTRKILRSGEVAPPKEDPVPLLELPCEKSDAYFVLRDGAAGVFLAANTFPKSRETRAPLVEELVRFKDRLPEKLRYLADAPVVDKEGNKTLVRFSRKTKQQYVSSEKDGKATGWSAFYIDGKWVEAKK
# Cysteine protease ATG4B = target: T3, Cysteine protease ATG4B (Homo sapiens, UniProt Q9Y4P1); format: functional;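 further: Fluorescence-based dose-response confirmation assay measuring inhibition of ATG4B activity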
# T3 sequence (Q9Y4P1 whole entry): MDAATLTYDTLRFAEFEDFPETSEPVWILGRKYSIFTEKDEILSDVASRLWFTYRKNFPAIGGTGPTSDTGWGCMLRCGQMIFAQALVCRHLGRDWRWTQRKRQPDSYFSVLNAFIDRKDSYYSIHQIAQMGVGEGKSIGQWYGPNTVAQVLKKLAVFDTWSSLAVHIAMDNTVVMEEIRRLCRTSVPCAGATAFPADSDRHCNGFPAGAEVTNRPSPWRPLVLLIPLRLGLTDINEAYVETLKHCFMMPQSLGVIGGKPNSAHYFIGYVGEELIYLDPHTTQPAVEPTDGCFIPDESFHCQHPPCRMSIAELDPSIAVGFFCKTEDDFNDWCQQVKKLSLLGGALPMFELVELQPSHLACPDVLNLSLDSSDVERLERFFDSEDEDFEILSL
# Phospholipase A2 = Phospholipase A2 (Homo sapiens, UniProt P04054); format: functional;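 further: confirmatory dose-response counterscreen on phospholipase A2, testing hits that came from an ultra-high-throughput screen for ATG4B inhibitors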
# Escherichia coli = experiment: microbe, parasite or virus in culture
# [4] = viability of HCT116 lacking mutant beta-catenin – cell-based, human colon tumor, dose response (AID 1045); format: functional;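 further: HCT116 colon tumor cells with beta catenin knocked out; cells exposed to compound for 60 hours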
# [5] = viability of PTEN-deleted HCT116 cells – cell-based, HCT116 PTEN knockout, dose response (AID 1047); format: functional;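 further: HCT116 colon tumor cells with PTEN knocked out; cells exposed to compound for 60 hours before readout; potency for loss of cell viability measured by luminescence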
# Cytochrome P450 2C9 = Cytochrome P450 2C9 (Homo sapiens, UniProt P11712)
# [6] = Luminescence Cell-Based Dose Confirmation HTS to Identify Inhibitors of Platelet Dense Granule Release. [Related pubchem assays: 1663 (Primary HTS), 1678 (Summary of Project)]; format: functional
# [7] = target: T4, Sentrin-specific protease 7 (Homo sapiens, UniProt Q9BQF6); format: functional;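 further: Luminescence-based dose-response confirmation of ultra-high-throughput screening hits, measuring inhibition of SENP7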
# T4 sequence (Q9BQF6 whole entry): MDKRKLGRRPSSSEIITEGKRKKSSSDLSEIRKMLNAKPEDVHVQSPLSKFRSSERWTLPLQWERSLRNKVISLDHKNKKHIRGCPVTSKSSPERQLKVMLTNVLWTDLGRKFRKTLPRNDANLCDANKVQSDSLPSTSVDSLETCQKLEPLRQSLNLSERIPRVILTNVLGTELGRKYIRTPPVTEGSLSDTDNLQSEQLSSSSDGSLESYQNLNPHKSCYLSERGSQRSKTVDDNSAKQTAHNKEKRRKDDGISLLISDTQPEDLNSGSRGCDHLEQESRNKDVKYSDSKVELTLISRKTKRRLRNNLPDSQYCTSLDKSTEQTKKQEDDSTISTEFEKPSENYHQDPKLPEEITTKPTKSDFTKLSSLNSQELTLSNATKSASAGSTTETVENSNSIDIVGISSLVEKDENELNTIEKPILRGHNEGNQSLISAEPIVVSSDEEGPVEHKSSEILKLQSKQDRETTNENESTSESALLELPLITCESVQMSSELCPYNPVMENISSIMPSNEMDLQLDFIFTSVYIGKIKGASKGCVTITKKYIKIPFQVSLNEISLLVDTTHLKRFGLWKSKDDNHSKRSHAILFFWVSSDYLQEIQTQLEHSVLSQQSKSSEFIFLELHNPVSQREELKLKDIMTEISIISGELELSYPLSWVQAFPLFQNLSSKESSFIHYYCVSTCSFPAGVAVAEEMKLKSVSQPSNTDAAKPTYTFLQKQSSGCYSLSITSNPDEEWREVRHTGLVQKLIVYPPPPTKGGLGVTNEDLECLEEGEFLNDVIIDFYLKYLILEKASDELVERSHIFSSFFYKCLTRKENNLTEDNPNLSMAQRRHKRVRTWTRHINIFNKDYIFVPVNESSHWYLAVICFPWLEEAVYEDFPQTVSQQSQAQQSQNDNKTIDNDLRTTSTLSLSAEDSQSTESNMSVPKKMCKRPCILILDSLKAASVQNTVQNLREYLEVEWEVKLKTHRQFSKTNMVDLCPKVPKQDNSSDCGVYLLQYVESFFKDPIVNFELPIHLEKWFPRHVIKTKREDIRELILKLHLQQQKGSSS
# Caspase-3 = target: T5, Caspase-3 (Homo sapiens, UniProt P42574); format: functional;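 further: Dose-response selectivity test against caspase-3 for candidate inhibitors of sentrin-specific proteases (SENPs)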
# T5 sequence (P42574 whole entry): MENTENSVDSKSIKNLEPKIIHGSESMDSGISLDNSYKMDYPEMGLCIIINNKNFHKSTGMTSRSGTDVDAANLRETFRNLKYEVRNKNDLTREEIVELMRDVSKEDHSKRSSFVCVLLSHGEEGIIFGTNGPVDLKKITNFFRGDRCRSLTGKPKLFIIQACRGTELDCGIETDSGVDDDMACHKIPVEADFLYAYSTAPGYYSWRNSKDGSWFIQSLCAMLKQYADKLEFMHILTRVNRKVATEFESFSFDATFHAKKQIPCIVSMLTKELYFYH
# [8] = target: Luciferin 4-monooxygenase (Photinus pyralis, UniProt P08659); experiment: inhibition of purified Photinus pyralis luciferase – biochemical, luminescence, dose response (AID 1891)
# [9] = target: T6, Sentrin-specific protease 8 (Homo sapiens, UniProt Q96LD8); format: functional;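 further: luminescence read-out of SENP8 inhibition, dose-response confirmation following an ultra-high-throughput screen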
# T6 sequence (Q96LD8 whole entry): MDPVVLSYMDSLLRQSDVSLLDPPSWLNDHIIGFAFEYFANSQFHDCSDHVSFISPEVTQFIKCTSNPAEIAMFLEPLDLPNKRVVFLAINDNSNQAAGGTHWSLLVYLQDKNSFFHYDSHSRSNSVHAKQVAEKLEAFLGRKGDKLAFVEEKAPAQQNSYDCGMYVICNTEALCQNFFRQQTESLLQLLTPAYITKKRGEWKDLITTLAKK
# [10] = target: T7, Sentrin-specific protease 6 (Homo sapiens, UniProt Q9GZR1); format: functional;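 further: Luminescence-based dose-response confirmatory assay of SENP6 inhibition, following up an ultra-high-throughput screen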
# T7 sequence (Q9GZR1 whole entry): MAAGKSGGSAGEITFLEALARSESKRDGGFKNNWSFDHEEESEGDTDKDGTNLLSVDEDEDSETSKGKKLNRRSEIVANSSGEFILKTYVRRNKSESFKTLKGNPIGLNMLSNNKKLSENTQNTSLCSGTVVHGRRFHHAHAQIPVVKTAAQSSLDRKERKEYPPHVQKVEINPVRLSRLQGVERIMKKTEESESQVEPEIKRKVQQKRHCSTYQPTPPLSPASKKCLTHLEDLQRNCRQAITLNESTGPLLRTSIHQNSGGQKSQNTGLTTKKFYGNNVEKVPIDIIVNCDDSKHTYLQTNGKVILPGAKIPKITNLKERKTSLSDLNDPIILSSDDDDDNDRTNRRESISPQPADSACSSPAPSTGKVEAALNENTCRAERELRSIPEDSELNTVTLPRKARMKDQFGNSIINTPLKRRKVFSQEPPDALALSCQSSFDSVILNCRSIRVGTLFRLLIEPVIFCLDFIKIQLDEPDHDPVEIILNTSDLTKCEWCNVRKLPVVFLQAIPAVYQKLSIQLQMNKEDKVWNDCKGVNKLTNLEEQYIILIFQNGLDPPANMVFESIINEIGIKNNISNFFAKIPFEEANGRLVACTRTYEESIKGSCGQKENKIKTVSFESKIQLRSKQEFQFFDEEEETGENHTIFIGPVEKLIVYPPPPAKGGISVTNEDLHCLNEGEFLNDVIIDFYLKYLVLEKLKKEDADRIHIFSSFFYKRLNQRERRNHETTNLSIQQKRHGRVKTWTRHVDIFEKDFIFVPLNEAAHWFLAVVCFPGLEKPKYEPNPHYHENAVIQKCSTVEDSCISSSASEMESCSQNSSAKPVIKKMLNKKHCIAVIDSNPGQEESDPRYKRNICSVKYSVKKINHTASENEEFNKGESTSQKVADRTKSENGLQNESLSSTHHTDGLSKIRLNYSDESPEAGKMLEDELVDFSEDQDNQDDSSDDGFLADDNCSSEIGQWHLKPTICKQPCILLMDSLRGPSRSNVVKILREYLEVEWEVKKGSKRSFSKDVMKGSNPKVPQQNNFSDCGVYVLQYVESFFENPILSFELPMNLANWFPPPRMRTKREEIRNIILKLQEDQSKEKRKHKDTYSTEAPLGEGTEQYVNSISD
# [11] = target: T8, Polyadenylate-binding protein 1 (Homo sapiens, UniProt P11940); experiment: MLLE domain peptide-binding blockers, IC50 – biochemical, fluorescence polarization, FITC-PAM2 peptide, dose response (AID 602259); format: functional; conditions: read-out: IC50_Mean
# [12] = target: T8, Polyadenylate-binding protein 1; experiment: MLLE binding blockers, Cy5 peptide tracer – biochemical, fluorescence polarization, Cy5-PAM2 peptide, secondary, miRNA deadenylation inhibitor project, dose response (AID 602260); format: functional; conditions: read-out: IC50_Mean
# Phospholipase A2, sequence (P04054 whole entry): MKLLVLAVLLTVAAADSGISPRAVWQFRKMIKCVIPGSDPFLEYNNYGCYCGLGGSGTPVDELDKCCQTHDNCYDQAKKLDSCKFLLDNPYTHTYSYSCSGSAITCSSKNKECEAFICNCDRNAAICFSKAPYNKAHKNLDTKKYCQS
# T8 sequence (P11940 whole entry, the tested form may be a part): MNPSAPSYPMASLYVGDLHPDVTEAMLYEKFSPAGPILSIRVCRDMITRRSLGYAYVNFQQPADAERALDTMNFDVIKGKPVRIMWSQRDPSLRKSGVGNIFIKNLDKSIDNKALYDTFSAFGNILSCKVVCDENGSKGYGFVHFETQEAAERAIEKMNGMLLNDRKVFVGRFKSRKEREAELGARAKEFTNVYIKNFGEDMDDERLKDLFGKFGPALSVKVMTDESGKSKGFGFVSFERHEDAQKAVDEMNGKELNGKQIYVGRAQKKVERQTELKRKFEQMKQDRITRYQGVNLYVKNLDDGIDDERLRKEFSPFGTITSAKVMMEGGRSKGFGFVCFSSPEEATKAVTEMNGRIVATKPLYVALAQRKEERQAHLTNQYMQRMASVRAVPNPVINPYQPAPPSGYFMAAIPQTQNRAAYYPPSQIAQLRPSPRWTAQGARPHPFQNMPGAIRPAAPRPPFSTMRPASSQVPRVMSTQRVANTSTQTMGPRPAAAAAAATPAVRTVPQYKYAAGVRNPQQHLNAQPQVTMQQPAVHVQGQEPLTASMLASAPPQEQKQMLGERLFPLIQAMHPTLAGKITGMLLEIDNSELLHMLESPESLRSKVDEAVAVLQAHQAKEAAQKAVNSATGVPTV
# Luciferin 4-monooxygenase, sequence (P08659 whole entry): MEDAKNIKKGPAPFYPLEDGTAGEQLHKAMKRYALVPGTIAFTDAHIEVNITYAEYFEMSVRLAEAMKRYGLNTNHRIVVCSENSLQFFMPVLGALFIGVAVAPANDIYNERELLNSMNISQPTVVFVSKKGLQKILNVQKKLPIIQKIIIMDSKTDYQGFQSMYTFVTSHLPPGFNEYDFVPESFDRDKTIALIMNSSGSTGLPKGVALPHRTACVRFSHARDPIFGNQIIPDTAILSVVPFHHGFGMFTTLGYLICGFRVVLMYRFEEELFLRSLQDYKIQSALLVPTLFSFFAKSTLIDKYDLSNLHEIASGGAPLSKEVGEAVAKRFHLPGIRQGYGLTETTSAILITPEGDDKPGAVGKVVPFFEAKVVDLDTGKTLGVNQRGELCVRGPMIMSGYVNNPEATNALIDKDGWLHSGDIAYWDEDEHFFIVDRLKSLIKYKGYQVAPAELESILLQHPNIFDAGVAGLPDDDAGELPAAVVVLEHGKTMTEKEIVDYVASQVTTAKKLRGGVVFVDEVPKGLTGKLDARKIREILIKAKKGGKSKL
# Cytochrome P450 2C9, sequence (P11712 whole entry): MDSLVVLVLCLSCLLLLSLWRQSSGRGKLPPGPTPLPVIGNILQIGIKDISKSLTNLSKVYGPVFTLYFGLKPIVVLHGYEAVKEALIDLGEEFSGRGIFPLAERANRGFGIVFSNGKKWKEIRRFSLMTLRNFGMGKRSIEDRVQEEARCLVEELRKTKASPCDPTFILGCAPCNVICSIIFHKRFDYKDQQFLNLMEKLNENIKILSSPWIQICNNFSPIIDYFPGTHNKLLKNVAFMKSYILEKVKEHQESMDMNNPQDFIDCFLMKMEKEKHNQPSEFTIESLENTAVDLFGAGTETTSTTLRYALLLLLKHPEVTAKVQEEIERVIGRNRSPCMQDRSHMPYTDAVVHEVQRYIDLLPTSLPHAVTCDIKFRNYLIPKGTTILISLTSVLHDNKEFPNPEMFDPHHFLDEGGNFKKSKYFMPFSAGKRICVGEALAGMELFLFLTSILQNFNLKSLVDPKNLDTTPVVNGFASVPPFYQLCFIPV
smiles,measurement,setting,value
CC(C)Cc1cc(C(=O)Nc2ccc(Br)cc2)no1,AC50,HeLa,113 µM (active)
Oc1ccc(Cl)cc1/C=C/c1ccc2cccc(O)c2n1,IC50,Prothrombin,> 50 µM (not active)
same,EC50,[1],44.8 µM (inactive)
same,EC50,[2],> 99 µM (inactive)
same,AC50,[3],3.87 µM (active)
COc1cc2c(cc1OC)C1=NC(=O)CN1C(SCc1ccc(C)cc1)=N2,AC50,DNA topoisomerase,13.8 µM (active)
C=CCn1c(SCc2cc(C(C)=O)ccc2OCC)nc2ccccc2c1=O,IC50,Cysteine protease ATG4B,5.1 µM (active)
same,IC50,Phospholipase A2,1.3 µM (active)
CCCCCn1c(SCCC(C)C)nc2c1c(=O)[nH]c(=O)n2C,AC50,DNA topoisomerase,> 38 µM (inactive)
COc1cccc(CN(C(=O)Cc2c[nH]c3ccccc23)C(C(=O)NC2CCCCC2)c2ccc(C)o2)c1 (stereo unspecified),AC50,Escherichia coli,44.4 µM (active)
same,EC50,[4],22.3 µM (active)
same,EC50,[5],19.9 µM (active)
CCc1ccc(NC(=O)C(S)=NC2CCCCC2)cc1,AC50,HeLa,182 µM (active)
O=C(NCc1cccc(C(F)(F)F)c1)c1cc(Cl)cc(Cl)c1,AC50,Cytochrome P450 2C9,inconclusive
same,IC50,Cysteine protease ATG4B,41 µM (inactive)
same,IC50,Phospholipase A2,2.38 µM (active)
COc1ccc(C(=O)n2nc(-c3ccco3)nc2SC)cc1OC,IC50,Prothrombin,0.204 µM (active)
same,EC50,[1],> 99 µM (inactive)
same,EC50,[2],45.8 µM (inactive)
COc1ccccc1/N=C/c1c(O)oc2ccccc2c1=O,EC50,[6],> 112 µM (not active)
same,IC50,[7],2.87 µM (active)
same,IC50,Caspase-3,> 100 µM (inactive)
same,EC50,[8],1.3 µM (active)
same,IC50,[9],> 100 µM (inactive)
same,IC50,[10],> 100 µM (inactive)
CCOC(=O)[C@H]1[C@H]2COc3ccc(Br)cc3[C@H]2N2C(=O)CN(Cc3ccc(C)cc3)C(=O)[C@@]12C,IC50,[11],49.1 µM (inactive)
same,IC50,[12],> 66 µM (inactive)
same,EC50,[1],4.72 µM (active)
same,EC50,[2],> 99 µM (inactive)
O=C(NCc1cccc(C(F)(F)F)c1)N1CCN(S(=O)(=O)c2ccccc2F)CC1,IC50,Cysteine protease ATG4B,12.5 µM (active)
same,IC50,Phospholipase A2,7.61 µM (active)
